Assay results published in patent US20140249105A1, “NOVEL CERAMIDE ANALOGUES, PROCESSES FOR PREPARING SAME AND USES THEREOF” (Diverchim, priority 2011, published 2014).

Experiments:
B16 melanocytes [1] = experiment: Screening of anti-melanogenesis activity: melanin assay in B16 melanocytes stimulated with NDP-MSH; assay type: cell-based; settings: 72 h
Method: This was carried out for compounds in solution in DMSO. The synthesis of melanin was measured in a model of B16 melanocytes stimulated with a stable derivative of α-MSH (natural hormone that stimulates melanogenesis: Melanocyte Stimulating Hormone): NDP-MSH ([Nle^4, DPhe7]-α-MSH).
(§1) Melanocytes were seeded on a 96-well plate and cultured for 24 h (37° C., 5% CO2, DMEM 1 g/L glucose without phenol red supplemented with glucose 3 g/L, L-glutamine 2 mM, penicillin 50 U/mL, streptomycin 50 μg/mL, fetal calf serum (FCS) 10%). […] Each experimental condition was carried out with n=3, apart from the controls carried out with n=6. The cells were then incubated for 72 h. Wells without cells received in parallel the same quantities of medium, supplemented or not with NDP-MSH and with or without the test compounds or the reference in order to quantify the background noise associated with the presence of the compounds.
At the end of 72 hours of incubation, the total melanin (intra- and extracellular) was quantified by measuring the absorbance of each sample at 405 nm (direct reading of the culture plates) against a standard range of melanin (melanin concentrations tested from 0.78 to 100 μg/mL). The background noise, measured in the wells without cells, was subtracted from the values measured so that only the effect connected with the production of melanin is taken into account, without including any interference connected with the presence of the compounds. The results were expressed in percentage of melanin relative to the control as well as in percentage inhibition.

B16 melanocytes [2] = experiment: Viability of the cells, test of reduction of MTT; assay type: cell-based; settings: 72 h
Method: as §1
At the end of the treatment, the cells were incubated in the presence of MTT (3-(4,5-dimethylthiazol-2-yl)-2,5-diphenyl tetrazolium bromide), the conversion of which to blue crystals of formazan is proportional to the activity of succinate dehydrogenase (mitochondrial enzyme). After disruption of the cells, the formazan was dissolved in DMSO medium and the optical density (OD), representative of the number of live cells and of their metabolic reactivity, was measured with a microplate reader at 540 nm (VERSAmax, Molecular Devices).

| Compound | Normalized data inhibition (%) (B16 melanocytes [1]; 30 μM) | Normalized data inhibition (%) (B16 melanocytes [1]; 100 μM) | Viability (MTT) % stimulated control (B16 melanocytes [2]; 30 μM) [% stimulated control] | Viability (MTT) % stimulated control (B16 melanocytes [2]; 100 μM) [% stimulated control] | further results |
| --- | --- | --- | --- | --- | --- |
| O=C(NC1CCC(NC(=O)C(F)=CCCCCCO)C1)C(F)=CCCCCCO (stereo not drawn) [c116] | 6 | 87 | 88 | 91 |  |
| O=C(NC1CCCC1NC(=O)C(F)=CCCCCCOC1CCCCO1)C(F)=CCCCCCOC1CCCCO1 (stereo not drawn) [c107] | 66 | 120 | 95 | 26 |  |
| O=C(NC1CCC(NC(=O)C(F)=CCCCCCO)C1)C(F)=CCCCCCO (racemic) [c115] | 0 | 95 | 94 | 97 |  |
| O=C(NC1CCCC1NC(=O)C(F)=CCCCCCCCCOC1CCCCO1)C(F)=CCCCCCCCCOC1CCCCO1 (mixture of isomers) [c71] | 93 | 109 | 116 | 104 |  |
| O=c1cc(CO)occ1O [Kojic acid, reference compound] |  |  |  |  | inhibition at 25 µg/mL (B16 melanocytes [1]; Melanocyte, 25 μg/mL, read-out: Normalized data inhibition (%)): 59%; inhibition at 100 µg/mL (B16 melanocytes [1]; Melanocyte, 100 μg/mL, read-out: Normalized data inhibition (%)): 83%; inhibition at 400 µg/mL (B16 melanocytes [1]; Melanocyte, 400 μg/mL, read-out: Normalized data inhibition (%)): 93%; Viability (MTT) % stimulated control (B16 melanocytes [2]; 25 μg/mL): 103 % stimulated control; Viability (MTT) % stimulated control (B16 melanocytes [2]; 100 μg/mL): 99 % stimulated control; Viability (MTT) % stimulated control (B16 melanocytes [2]; 400 μg/mL): 96 % stimulated control |
| O=C(N[C@H]1C[C@H]1NC(=O)C(F)=CCCCCCCCCCCCCCCCO)C(F)=CCCCCCCCCCCCCCCCO [c44] |  |  |  |  | Normalized data inhibition (%) (B16 melanocytes [1]; 1 μM): −11%; Normalized data inhibition (%) (B16 melanocytes [1]; 3 μM): 36%; Normalized data inhibition (%) (B16 melanocytes [1]; 10 μM): 69%; Viability (MTT) % stimulated control (B16 melanocytes [2]; 1 μM): 87 % stimulated control; Viability (MTT) % stimulated control (B16 melanocytes [2]; 3 μM): 88 % stimulated control; Viability (MTT) % stimulated control (B16 melanocytes [2]; 10 μM): 91 % stimulated control |
| O=C(NC1CCC(NC(=O)C(F)=CCCCCCOC2CCCCO2)C1)C(F)=CCCCCCOC1CCCCO1 (stereo not drawn) [c8] | 86 | 115 | 86 | 77 |  |
| O=C(NC1CC1NC(=O)C(F)=CCCCCCOC1CCCCO1)C(F)=CCCCCCOC1CCCCO1 (racemic) [c110] | 104 | 120 | 83 | 0 |  |
| O=C(NC1CCC(NC(=O)C(F)=CCCCCCCCCCCCO)C1)C(F)=CCCCCCCCCCCCO (stereo not drawn) [c60] | 83 | 97 | 105 | 101 |  |
| O=C(NC1CCC(NC(=O)C(F)=CCCCCCCCCOC2CCCCO2)C1)C(F)=CCCCCCCCCOC1CCCCO1 (mixture of isomers) [c74] | 110 | 111 | 78 | 81 |  |
| O=C(/C=C/CCCCCCCCCCCOC1CCCCO1)N[C@@H]1CC[C@H](NC(=O)/C=C/CCCCCCCCCCCOC2CCCCO2)C1 (stereo partly drawn) [c30] |  |  | 76 |  | inhibition at 10 µM (B16 melanocytes [1]; Melanocyte, 10 μM, read-out: Normalized data inhibition (%)): 42%; inhibition at 30 µM (B16 melanocytes [1]; Melanocyte, 30 μM, read-out: Normalized data inhibition (%)): 71%; Viability (MTT) % stimulated control (B16 melanocytes [2]; 10 μM): 77 % stimulated control |
| O=C(N[C@@H]1CC[C@H](NC(=O)/C(F)=C/CCCCCCCOC2CCCCO2)C1)/C(F)=C/CCCCCCCOC1CCCCO1 (stereo partly drawn) [c68] | 95 | 108 | 64 | 50 |  |
| CCCCCC=CCC=CCCCCCCCC(=O)NC1CC1NC(=O)CCCCCCCC=CCC=CCCCCC (stereo not drawn) [c122] | 8 | 109 |  |  |  |
| O=C(/C=C/CCCCCCCCO)N[C@H]1CCC[C@H]1NC(=O)/C=C/CCCCCCCCO [c15] | 2 | 73 | 76 | 74 |  |
| O=C(N[C@H]1CCC[C@H]1NC(=O)/C(F)=C\CCCCCCCCO)/C(F)=C\CCCCCCCCO [c49] | 83 | 118 | 83 | 0 |  |
| CCCCCC=CCC=CCCCCCCCC(=O)NC1CCC(NC(=O)CCCCCCCC=CCC=CCCCCC)C1 (stereo not drawn) [c135] | 0 | 90 |  |  |  |
| O=C(O)C(F)=CCCCCCCCCCCCCCCCO [Ref 2, 18-Hydroxy-octadec-2-en-2-fluoro-oic acid, reference compound] | 0 | 79 | 83 | 72 |  |
| O=C(N[C@H]1CCC[C@H]1NC(=O)/C(F)=C\CCCCCCCOC1CCCCO1)/C(F)=C\CCCCCCCOC1CCCCO1 (stereo partly drawn) [c67] | 119 | 116 | 71 | 81 |  |
| O=C(NC1CC1NC(=O)C(F)=CCCCCCCCCO)C(F)=CCCCCCCCCO (mixture of isomers) [c37] | 0 | 92 | 77 | 83 |  |
| O=C(NC1CCCC1NC(=O)C(F)=CCCCCCCCOC1CCCCO1)C(F)=CCCCCCCCOC1CCCCO1 (mixture of isomers) [c66] | 119 | 118 | 96 | 93 |  |
| O=C(NC1CC1NC(=O)C(F)=CCCCCCOC1CCCCO1)C(F)=CCCCCCOC1CCCCO1 (mixture of isomers) [c108] | 73 | 105 | 75 | 80 |  |
| O=C(N[C@@H]1CC[C@H](NC(=O)/C(F)=C/CCCCCCCCO)C1)/C(F)=C/CCCCCCCCO [c58] | 62 | 83 | 101 | 98 |  |
| O=C(N[C@@H]1CC[C@H](NC(=O)/C(F)=C\CCCCCOC2CCCCO2)C1)/C(F)=C\CCCCCOC1CCCCO1 (stereo partly drawn) [c106] | 114 | 119 | 73 | 36 |  |
| O=C(NC1CCCC1NC(=O)C(F)=CCCCCCCCO)C(F)=CCCCCCCCO (mixture of isomers) [c46] | 0 | 75 | 77 | 68 |  |
| O=C(NC1CCC(NC(=O)C(F)=CCCCCCCCOC2CCCCO2)C1)C(F)=CCCCCCCCOC1CCCCO1 (mixture of isomers) [c69] | 116 | 112 | 87 | 78 |  |
| (E)-14-tetrahydropyranyloxy-tetradec-2-enoic acid [Ref3, reference compound] | 0 | 11 | 92 |  |  |
| O=C(N[C@@H]1CC[C@H](NC(=O)/C(F)=C\CCCCCCCOC2CCCCO2)C1)/C(F)=C\CCCCCCCOC1CCCCO1 (stereo partly drawn) [c70] | 115 | 116 | 90 | 86 |  |
| O=C(NC1CC1NC(=O)C(F)=CCCCCCOC1CCCCO1)C(F)=CCCCCCOC1CCCCO1 (stereo not drawn) [c111] | 25 | 108 | 98 | 57 |  |
